Entries after “also recorded” stand apart in the source; their conditions may differ.
Columns and labels:
[1] = target: T1, mA3AR (Mus musculus, UniProt Q61618)
T1 sequence (Q61618 1-319): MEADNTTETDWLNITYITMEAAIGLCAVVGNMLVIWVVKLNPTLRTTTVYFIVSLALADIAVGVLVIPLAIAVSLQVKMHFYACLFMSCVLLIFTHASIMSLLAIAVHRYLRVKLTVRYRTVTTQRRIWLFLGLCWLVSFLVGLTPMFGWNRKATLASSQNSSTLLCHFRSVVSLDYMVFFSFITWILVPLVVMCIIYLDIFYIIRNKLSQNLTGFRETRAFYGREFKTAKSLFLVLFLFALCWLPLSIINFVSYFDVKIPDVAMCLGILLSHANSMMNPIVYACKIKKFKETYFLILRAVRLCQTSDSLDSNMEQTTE

[2] = target: T2, hA3AR (Homo sapiens, UniProt P0DMS8)
T2 sequence (P0DMS8 1-318): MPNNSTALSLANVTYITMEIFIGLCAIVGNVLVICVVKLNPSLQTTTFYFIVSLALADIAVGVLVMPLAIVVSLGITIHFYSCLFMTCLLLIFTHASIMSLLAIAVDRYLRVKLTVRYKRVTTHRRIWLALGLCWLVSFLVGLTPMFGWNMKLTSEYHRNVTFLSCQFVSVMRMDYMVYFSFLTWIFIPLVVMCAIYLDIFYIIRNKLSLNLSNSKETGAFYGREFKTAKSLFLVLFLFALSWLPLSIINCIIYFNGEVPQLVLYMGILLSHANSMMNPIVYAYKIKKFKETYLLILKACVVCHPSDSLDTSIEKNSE

[3] = target: T2, hA3AR; settings: fixed concentration of 15 (10 μM), Figure 1C
[4] = tested on: 45 receptors, channels and transporters; test: Off-target screen in radioligand binding assays; settings: Table S1
[5] = tested on: wild-type C57BL/6 (WT) or A3AR-KO mice; test: Mouse model of A3AR-induced hypothermia; format: in vivo
[6] = target: translocator protein, TSPO (Rattus norvegicus, UniProt P16257); test: Off-target radioligand binding, TSPO
Sequence of translocator protein, TSPO (P16257 whole entry): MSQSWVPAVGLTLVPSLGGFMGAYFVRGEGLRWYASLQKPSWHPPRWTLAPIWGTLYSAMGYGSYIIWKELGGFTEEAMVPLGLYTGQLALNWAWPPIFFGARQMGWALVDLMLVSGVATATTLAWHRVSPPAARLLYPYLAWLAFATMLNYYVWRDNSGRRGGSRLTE

For Oc1ccc(CCNc2nc(C#Cc3ccccc3)nc3c2ncn3[C@H]2[C@H](O)[C@H](O)[C@@H]3C[C@@H]32)cc1 [Compound 10, (1R,2R,3S,4R,5S)-4-(6-((4-Hydroxyphenethyl)amino)-2-(phenylethynyl)-9H-purin-9-yl)bicyclo[3.1.0]hexane-2,3-diol], the “increase of mA3AR affinity compared to 8” value [1] was 6 fold.
With Oc1ccc(CCNc2nc(C#Cc3ccccc3)nc3c2ncn3[C@H]2[C@H](O)[C@H](O)[C@@H]3C[C@@H]32)cc1F [Compound 11, (1R,2R,3S,4R,5S)-4-(6-((3-Fluoro-4-hydroxyphenethyl)amino)-2-(phenylethynyl)-9H-purin-9-yl)bicyclo[3.1.0]hexane-2,3-diol] the “increase of hA3AR affinity compared to 8” value [2] was 2 fold.
With COc1ccc(CCNc2nc(C#Cc3ccccc3)nc3c2ncn3[C@H]2[C@H](O)[C@H](O)[C@@H]3C[C@@H]32)cc1O [Compound 14, (1R,2R,3S,4R,5S)-4-(6-((3-Hydroxy-4-methoxyphenethyl)amino)-2-(phenylethynyl)-9H-purin-9-yl)bicyclo[3.1.0]hexane-2,3-diol] the “reduction of mA3AR affinity compared to 15” value [1] was 7 fold.
In the case of COc1cc(CCNc2nc(C#Cc3ccccc3)nc3c2ncn3[C@H]2[C@H](O)[C@H](O)[C@@H]3C[C@@H]32)ccc1O [Compound 15, (1R,2R,3S,4R,5S)-4-(6-((4-Hydroxy-3-methoxyphenethyl)amino)-2-(phenylethynyl)-9H-purin-9-yl)bicyclo[3.1.0]hexane-2,3-diol], the “increase of mA3AR affinity compared to 8” value [1] is reported as ~ 27 fold, the “Antagonism of hA3AR activation by Cl-IB-MECA 38 in cAMP assay” value [3] is reported as “greatly inhibited the activation of hA3AR by Cl-IB-MECA; also recorded: shifted the concentration-response curve of Cl-IB-MECA 38 rightward” and the “Interaction with other GPCRs” value [4] is reported as “did not interact”. The “Effect of pretreatment on hypothermic effect of full agonist 39” value ([5]; 3 mg/kg or 10 mg/kg 15, 30 min prior to 39 (3 mg/kg)) was “did not significantly attenuate”, the “Effect on core body temperature (Tb)” value ([5]; 3 mg/kg, i.p., WT mice (Figure 2B)) was “only weak hypothermia” and the “Effect on core body temperature (Tb) in ADORA3−/− mice” value ([5]; 10 mg/kg, i.p., ADORA3−/− mice, versus WT (Figure 2A)) was “greatly attenuated”. The “Effect on core body temperature (Tb)” value ([5]; 10 mg/kg, i.p., wild-type C57BL/6 mice (Figure 2A)) was “lowered core body temperature”, the “Period over which in vivo agonism was maintained” value ([5]; mouse) was > 2 h and the “increase of hA3AR affinity compared to 8” value [2] was ~ 2 fold.
O[C@@H]1[C@H](O)[C@@H]2C[C@@H]2[C@H]1n1cnc2c(NCCc3cccc(Cl)c3)nc(C#Cc3ccc(Cl)s3)nc21 [Compound 26, (1R,2R,3S,4R,5S)-4-(6-((3-Chlorophenethyl)amino)-2-((5-chlorothiophen-2-yl)ethynyl)-9H-purin-9-yl)bicyclo[3.1.0]hexane-2,3-diol] was tested, and the Ki [6] was ~350 nM.
In the case of COc1cc(CCNc2nc(C#Cc3ccc(Cl)s3)nc3c2ncn3[C@H]2[C@H](O)[C@H](O)[C@@H]3C[C@@H]32)ccc1O [Compound 29, (1R,2R,3S,4R,5S)-4-(2-((5-Chlorothiophen-2-yl)ethynyl)-6-((4-hydroxy-3-methoxyphenethyl)amino)-9H-purin-9-yl)bicyclo[3.1.0]hexane-2,3-diol], the “reduction of mA3AR affinity compared to 15” value [1] is reported as 4 fold.
O[C@@H]1[C@H](O)[C@@H]2C[C@@H]2[C@H]1n1cnc2c(N[C@H]3C[C@@H]3c3ccccc3)nc(C#Cc3ccc(Cl)s3)nc21 [Compound 31, (1R,2R,3S,4R,5S)-4-(2-((5-Chlorothiophen-2-yl)ethynyl)-6-(((1S,2R)-2-phenylcyclopropyl)amino)-9H-purin-9-yl)bicyclo[3.1.0]hexane-2,3-diol] was tested, and the “reduction of hA3AR affinity by cyclopropyl constraint of the N6-2-phenylethyl moiety” value ([2]; compared to N6-2-phenylethyl analogue) was ~ 10 fold.
With CNC(=O)[C@@]12C[C@@H]1[C@@H](n1cnc3c(NCc4cccc(Cl)c4)nc(C#Cc4ccc(F)c(F)c4)nc31)[C@H](O)[C@@H]2O [Compound 39, (1S,2R,3S,4R,5S)-4-(6-((3-chlorobenzyl)amino)-2-((3,4-difluorophenyl)-ethynyl)-9H-purin-9-yl)-2,3-dihydroxy-N-methylbicyclo[3.1.0]hexane-1-carboxamide, reference compound] the Hypothermic effect ([5]; 3 mg/kg, mice) was “pronounced hypothermic effect”.
